In patent publication US10519132B2, “Isocorydine derivatives, preparation method and use thereof” (Lanzhou Institute of Chemical Physics, Chinese Academy of …, priority 2017, dated 2019):
Like-named read-outs stand apart in the source and are kept apart here.

Legend:
[1] = tested on: human cervical cancer Hela cell strains; experiment: MTT growth inhibition on Hela;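 note: compound exposure of 24, 48 or 72 h in DMEM with 10% fetal bovine serum, MTT absorbance read at 490 nm, inhibition calculated relative to control group OD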
Method: (§2) By using an MTT method, a sample solution to be tested was added to a 96-well plate in which cancer cells were adherently grown. Culturing was performed for a certain period, and the growth inhibition effect of a compound on a human cancer cell strain for primary screening was measured to determine the anti-cancer activity of the compound.
(§3) Cell culture: A cell incubator was set to conditions of 37° C., 5% CO2, and a saturated humidity, cells were cultured under these conditions, and the cell medium was a DMEM complete medium, wherein 10% fetal bovine serum, 100 IU/mL penicillin, and 100 μg/mL streptomycin were comprised.
(§4) The single cell suspension was diluted to 5×10^3/100 μL after counting, inoculated on a 96-well cell culture plate (triplicate), and adherently cultured overnight;
(§5) After 24 h of adhesion, the complete medium was discarded, 100 μL-sample-solutions to be tested having different concentrations were sequentially added to the 96-well plate according to a concentration gradient, and incubations were continued for 24 h, 48 h, and 72 h;
(§6) The culture liquid was discarded, a 0.5 mg/mL MTT diluted working liquid was added, and incubation was performed for 4 h by placing in an incubator;
(§7) The culture liquid was discarded, 100 μL of DMSO was added, low-speed oscillation was performed for 10 min by placing on a shaker, and the spectrophotometric value of each well was measured at a wavelength of 490 nm by using a microplate reader. Statistical analysis was performed and tumor cell growth inhibition rate was calculated according to the equation: Growth inhibition rate=(OD value of control group−OD value of experimental group)/OD value of control group.
(§8) Culturing was performed for a certain period, the growth inhibition effect of a compound on 3 human cancer cell strains for primary screening was measured to determine the anti-cancer activity of the compound, and a growth inhibition curve was plotted.

[2] = tested on: human gastric cancer cell strain MGC-803; experiment: MTT growth inhibition on MGC-803;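 note: adherent cells exposed to compound over a concentration gradient for 24, 48 and 72 h, MTT absorbance at 490 nm, inhibition relative to untreated control wells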
Method: as §2, §3, §4, §5, §6, §7, §8

[3] = tested on: human liver cancer cell strain HepG2; experiment: MTT growth inhibition on HepG2; format: cell-based;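 note: adherent cells in 96-well plates treated with a concentration series for 24, 48 or 72 h, MTT absorbance read at 490 nm, inhibition computed relative to untreated control wells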
Method: as §2, §3, §4, §5, §6, §7, §8

[4] = tested on: ascites hepatoma H22 induced solid tumor; experiment: In vivo tumor growth inhibition in mice bearing H22; set-up: species or system white Kunming mice; conditions: Table 6; high COM33 dosage group (100 g/Kg), intraperitoneal injection
Source text: 1. Tumor strain and animal for experiments: H22 liver cancer cell strain was provided by Teaching and Research Office, School of Basic Medical Sciences, Lanzhou University/Key Lab of Preclinical Study for New Drugs of Gansu Province, and was passage and preserved by periodically intraperitoneal inoculation. White Kunming mice (18.0-22.0 g) were provided by Lanzhou Veterinary Institute, Chinese Academy of Agriculture.
2. Establishment of tumor models and method of grouping: a third passage of mice which were well grown 7 d after intraperitoneal inoculation of H22 tumor cells were sacrificed by cervical dislocation, and placed and soaked in 75% alcohol for 10 min. After 3 mL of sterile physiological saline was intraperitoneally injected, milky tumor cell ascites was withdrawn from the abdominal cavity, and formulated into a tumor cell suspension with sterile physiological saline, with a cell number of 1.5×10^7 mL^−1. 80 white Kunming mice were taken, and 0.2 mL of the tumor cell suspension was subcutaneously inoculated to the left axilla of each mouse. 24 h after the inoculation of tumor cells, the mice were divided into 8 groups according to body weights, 10 mice for each group. […] All of the administration manners were intraperitoneal administration.
3. Result of experiments: On the second day of modeling, continuous administration was performed for 10 d. Administration was stopped on the 11th d, and mice were sacrificed by cervical dislocation on the next day.
Test method: For the test method, see Example 24. Results can be seen in FIG. 15, FIG. 16, and Table 5.
Method: Modeling was performed by using the method of establishing H22 white mice tumor-bearing model of Example 24. The in vivo tumor growth inhibition activity of COM33 on H22 model mice was measured in an intraperitoneal injection administration manner.

[5] = tested on: ascites hepatoma H22 induced solid tumor; experiment: as above; set-up: species or system white Kunming mice; conditions: Table 6; low COM33 dosage group (50 mg/Kg), intraperitoneal injection
[6] = tested on: C-Myc, Ki-67, CylinD1, β-Catenin protein; experiment: Western blotting, protein expression in HepG2 cells; format: cell-based, human; conditions: sorafenib 4 μg/mL, high COM33 dosage 10.0 μg/mL, combination 4 μg/mL sorafenib+5.0 μg/mL COM33
Description: (§1) Method: Gel electrophoresis of protein samples. Gel formulation: All components were added to a small beaker according to a formulation of a separation gel, uniformly mixed with slightly shaking to prevent the generation of bubbles, quickly applied to a seam of a glass plate with a 1 mL pipette, and then blocked with double distilled water to prevent oxidation. After 30 min, the separation gel solidified, the double distilled water thereof was poured off, waster was suctioned with a filter paper, a 5% concentration gel was formulated, TEMED was finally loaded onto the glass plate, and a 1.0 mm comb was inserted into the concentration gel and placed at room temperature for 30 min. The comb was slightly, vertically, and carefully pulled up, various groups of 20 μL protein samples were pipetted with a microsyringe, an equal volume of a loading buffer and an equal volume of a loading buffer containing 3 μL of Marker were separately added to a loading well, an electrophoresis instrument was switched on after electrodes were plugged, gels were run at 75V for 30 min, and the voltage was changed to 120V and gels were run for 2 h when bromophenol blue reaches the separation gel. Membrane transfer: A PVDF membrane having a suitable size was cut according to the size of the gel, placed in a methanol solution for 1 min, lifted, and placed and soaked together with a well cut filter paper in a previously precooled membrane transfer buffer. A sponge pad, three layers of filter paper, a gel, three layers of filter paper, and a sponge pad, in this order from top to bottom, were placed in a membrane transfer tank, and a precooled membrane transfer buffer was then added. Several ice bags were placed circumferentially to prevent an excessively hot external environment, and electrodes were plugged and membrane transfer was performed at a constant current of […] for 2.5 hours. Blocking and incubation of antibodies: A transferred membrane was cut into desired bands, which were placed in a blocking solution of 5% skim milk powder, placed on a shaker, and shaken at room temperature at a low speed for 1 h. A primary antibody was diluted with the blocking solution, a corresponding antibody was pipetted and added to a zip lock bag, the PVDF membrane was then placed in the antibody dilution, bubbles in the zip lock bag were evacuated, and the zip lock bag was sealed and placed in a refrigerator at 4° C. overnight. The membrane was withdrawn from the zip lock bag on the second day, and placed in a clean dish. A TBST solution was added and washed 3 times on a low-speed shaker, 10 min for each time. […]

Vimentin = experiment: Western blotting, Vimentin expression in HepG2 cells; format: cell-based, human; conditions: COM33 experiment (FIG. 17), combination compared to the sorafenib group
Description: as §1

[7] = Homo sapiens, HeLa, read-out: IC50 HeLa
[8] = Homo sapiens, MGC-803, read-out: IC50 MGC-803
[9] = Homo sapiens, HepG2, Table 1, MTT, read-out: IC50 HepG2
[10] = Homo sapiens, HepG2, read-out: IC50 HepG2
[11] = Homo sapiens, HeLa, read-out: IC50 HeLa, Table 1, MTT
[12] = Homo sapiens, MGC-803, read-out: IC50 MGC-803, Table 1, MTT

IC50 [3, 9]	IC50 [1, 11]	IC50 [2, 12]	SMILES	IC50 [1, 7]	IC50 [2, 8]	further results
53.2 µM	46.6 µM	47.8 µM	COc1cc(NC(=O)Nc2ccc(SC)cc2)c2c(c1O)-c1c(OC)c(OC)cc3c1C(C2)N(C)CC3 (stereo not shown) [Compound 4, 8-(N-(4′-methylsulfide-phenyl))-ureido-isocorydine]			
36.7 µM	36.9 µM	35.2 µM	COc1cc(NC(=O)Nc2ccccc2Cl)c2c(c1O)-c1c(OC)c(OC)cc3c1C(C2)N(C)CC3 (stereo not shown) [Compound 5, 8-(N-(2′-dichloro-phenyl))ureido-isocorydine]			
45.9 µM	49 µM	57.3 µM	COc1cc(NC(=O)Nc2ccc(C(F)(F)F)cc2)c2c(c1O)-c1c(OC)c(OC)cc3c1C(C2)N(C)CC3 (stereo not shown) [Compound 8, 8-(N-(4′-trifluoromethyl-phenyl))-ureido-isocorydine]			
21.5 µM	16.6 µM	21.9 µM	COc1cc(NC(=O)c2ccc(Cl)c(C(F)(F)F)c2)c2c(c1O)-c1c(OC)c(OC)cc3c1C(C2)N(C)CC3 (stereo not shown) [Compound 11, 8-N-(3′-trifluoromethyl-4′-chloro-benzoyl)-isocorydine]			
63.4 µM	74.5 µM	37.9 µM	COc1cc(NC(=O)/C=C/c2ccccc2)c2c(c1O)-c1c(OC)c(OC)cc3c1C(C2)N(C)CC3 (stereo not drawn) [Compound 12, 8-N-trans-cinnamoyl-isocorydine]			
30.2 µM	29.6 µM	27.2 µM	COc1cc(NC(=O)c2cc(Cc3n[nH]c(=O)c4ccccc34)ccc2F)c2c(c1O)-c1c(OC)c(OC)cc3c1C(C2)N(C)CC3 (stereo not shown) [Compound 13, 8-N-[2-fluoro-5-(4-oxo-3,4-dihydrophthalazin-1-yl)methyl]benzamido isocorydine]			
69.8 µM	49.6 µM	34.7 µM	COc1cc(NC(=O)c2cccnc2)c2c(c1O)-c1c(OC)c(OC)cc3c1C(C2)N(C)CC3 (stereo not shown) [Compound 14, 8-N-nicotinamido-isocorydine]			
< 10 µM	< 10 µM	< 10 µM	COc1cc(NC(=O)Nc2ccc(N3CCC(CN)CC3)c(C(F)(F)F)c2)c2c(c1O)-c1c(OC)c(OC)cc3c1[C@H](C2)N(C)CC3 [Compound 17]			Tumor inhibition rate (%) [4]: 73.8%; IC50 ([1]; Homo sapiens, HeLa, read-out: IC50 Hela, Table 2, MTT): 6.32 µM; Tumor inhibition rate (%) [5]: 27.2%; expressions of C-Myc, Ki-67, CylinD1 and β-Catenin protein compared to the blank control group [6]: significantly reduced; IC50 ([2]; Homo sapiens, MGC-803, read-out: IC50 MGC-803, Table 2, MTT): 11.1 µM; Vimentin expression (Vimentin): expressed in all groups; IC50 ([3]; Homo sapiens, HepG2, Table 2, MTT, read-out: IC50 HepG2): 7.51 µM
25.9 µM	26.7 µM	28.7 µM	COc1cc(NC(=O)Nc2ccc(N3CCC(NC(=O)OC(C)(C)C)CC3)c(C(F)(F)F)c2)c2c(c1O)-c1c(OC)c(OC)cc3c1C(C2)N(C)CC3 (stereo not shown) [Compound 19, 8-N-[3′-trifluoromethyl-4′-(4″-aminoformic acid tert-butyl ester-piperidine)-phenyl]-ureido isocorydine]			
18.6 µM	13.7 µM	22.3 µM	COc1cc(NC(=O)Nc2ccc(N3CCC(N)CC3)c(C(F)(F)F)c2)c2c(c1O)-c1c(OC)c(OC)cc3c1C(C2)N(C)CC3 (stereo not shown) [Compound 20, 8-(N-(3′-trifluoromethyl-4′-(4″-amino-piperidine)-phenyl))-ureido-isocorydine]			

More lines, now with the values behind:

SMILES	IC50 [3, 9]	IC50 [1, 11]	IC50 [2, 12]	IC50 [1, 7]	IC50 [2, 8]	further results
COc1cc(NC(=O)Nc2ccc(Cl)c(Cl)c2)c2c(c1O)-c1c(OC)c(OC)cc3c1C(C2)N(C)CC3 (stereo not shown) [Compound 2, 8-(N-(3′,4′-dichloro-phenyl))-ureido-isocorydine]	28.4 µM			21.7 µM	30 µM	
COc1cc(NC(=O)Nc2ccc(C)cc2)c2c(c1OC(=O)Nc1ccc(C)cc1)-c1c(OC)c(OC)cc3c1C(C2)N(C)CC3 (stereo not shown) [Compound 3]				19.1 µM	25.6 µM	IC50 [3, 10]: 16.1 µM
COc1cc(NC(=O)Nc2ccccc2Cl)c2c(c1OC(=O)Nc1ccccc1Cl)-c1c(OC)c(OC)cc3c1C(C2)N(C)CC3 (stereo not shown) [Compound 6]				27.1 µM	26.9 µM	IC50 [3, 10]: 17.2 µM
COc1cc(NC(=O)Nc2ccccc2C)c2c(c1OC(=O)Nc1ccccc1C)-c1c(OC)c(OC)cc3c1C(C2)N(C)CC3 (stereo not shown) [Compound 7]				43.9 µM	22.8 µM	IC50 [3, 10]: 31.4 µM
COc1cc(NC(=O)Nc2ccc(C(F)(F)F)cc2)c2c(c1OC(=O)Nc1ccc(C(F)(F)F)cc1)-c1c(OC)c(OC)cc3c1C(C2)N(C)CC3 (stereo not shown) [Compound 9]				47.7 µM	39.3 µM	IC50 [3, 10]: 44.1 µM
COc1cc(NC(=O)Nc2ccc(F)cc2)c2c(c1OC(=O)Nc1ccc(F)cc1)-c1c(OC)c(OC)cc3c1C(C2)N(C)CC3 (stereo not shown) [Compound 10]				26.8 µM	25.1 µM	IC50 [3, 10]: 26.7 µM
COc1cc(NC(=O)Nc2ccccc2)c2c(c1O)-c1c(OC)c(OC)cc3c1C(C2)N(C)CC3 (stereo not shown) [Compound 15, 8-N-(phenyl)-ureido-isocorydine]	75.4 µM			62.1 µM	56.6 µM	
COc1cc(NC(=O)Nc2ccc(N3CCC(CNC(=O)OC(C)(C)C)CC3)c(C(F)(F)F)c2)c2c(c1O)-c1c(OC)c(OC)cc3c1C(C2)N(C)CC3 (stereo not shown) [Compound 16, 8-[3-trifluoromethyl-4-(4-methylaminoformic acid tert-butyl ester)piperidine]benzoylureido isocorydine]	18.9 µM	22.1 µM	23.2 µM			
CCC(=O)NCC1CCN(c2ccc(NC(=O)Nc3cc(OC)c(O)c4c3CC3c5c(cc(OC)c(OC)c5-4)CCN3C)cc2C(F)(F)F)CC1 (stereo not shown) [Compound 18, 8-[3-trifluoromethyl-4-(4-methylaminoformic acid propyl ester)-piperidine]benzoylureido isocorydine]	10.7 µM	12.5 µM	10.4 µM			
COC1=CC(=O)c2cc3c4c(cc(OC)c(OC)c4c2C1=O)CCN3C [TICD, isocorydione, reference compound]						IC50 ([1]; read-out: IC50 Hela, Table 2, MTT): 31.3 µM; IC50 ([2]; read-out: IC50 MGC-803, Table 2, MTT): 49.6 µM; IC50 ([3]; Table 2, MTT, read-out: IC50 HepG2): 40 µM
